Laboratory results reported in PubChem BioAssay AID296 (DTP/NCI, 2004).
Results filed as inconclusive are left out.

Tested on: MX-1 breast xenograft, nude mice, tumor weight T/C
Test: NCI In Vivo Anticancer Drug Screen. Data for tumor model Human Mammary Carcinoma MX-1 Xenograft (intrarenal inoculation) in NU/NU Swiss (nude) mice
Conditions: endpoint: mean tumor weight change, higher = larger tumour
Procedure, shortened: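 Read-out: treated (T) over vehicle control (C) ratio of survival or tumor size. Dosing in animals carrying the transplanted tumor.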

[1] = dose: 800.0 mg/kg/injection, schedule: Q04DX003 (sc), vehicle: Klucel (hydroxypropylcellulose) (HPC)
[2] = dose: 300.0 mg/kg/injection, schedule: Q04DX003 (sc), vehicle: Klucel (hydroxypropylcellulose) (HPC)
[3] = dose: 2400.0 mg/kg/injection, schedule: Q04DX003 (sc), vehicle: Klucel (hydroxypropylcellulose) (HPC)
[4] = dose: 150.0 mg/kg/injection, schedule: Q04DX003 (sc), vehicle: Klucel (hydroxypropylcellulose) (HPC)

**Q.** How did the T/C (dose: 25.0 mg/kg/injection, schedule: Q04DX003 (sc), vehicle: Klucel (hydroxypropylcellulose) (HPC)) turn out when O=C(Nc1ccc(N=C=S)cc1Cl)c1cc(Cl)cc(Cl)c1O was run?
**A.** The T/C was 105 % of control.

**Q.** And the T/C (dose: 50.0 mg/kg/injection, schedule: Q04DX003 (sc), vehicle: Klucel (hydroxypropylcellulose) (HPC))?
**A.** The T/C was 79 % of control.

**Q.** What about the T/C (dose: 100.0 mg/kg/injection, schedule: Q04DX003 (sc), vehicle: Klucel (hydroxypropylcellulose) (HPC)) of the same compound?
**A.** The T/C was 117 % of control.

**Q.** What about the T/C (dose: 400.0 mg/kg/injection, schedule: Q04DX003 (sc), vehicle: Klucel (hydroxypropylcellulose) (HPC)) of the same compound?
**A.** Its T/C is 50 % of control.

**Q.** What about the T/C [1] of the same compound?
**A.** Its T/C is 48 % of control.

**Q.** What does the source list for NC(=O)c1csc(C2OC(CO)C(O)C2O)n1 (centres undefined)?
**A.** T/C (dose: 200.0 mg/kg/injection, schedule: Q04DX003 (sc), vehicle: water): 90 % of control; T/C (dose: 400.0 mg/kg/injection, schedule: Q04DX003 (sc), vehicle: water): 96 % of control; T/C (dose: 800.0 mg/kg/injection, schedule: Q04DX003 (sc), vehicle: water): 118 % of control

**Q.** Cc1cc(C)c(-c2cc(O)c(C)cc2O)c(C)c1 was tested. Which T/C [2] did it give?
**A.** The T/C was 588 % of control.

**Q.** What about the T/C (dose: 600.0 mg/kg/injection, schedule: Q04DX003 (sc), vehicle: Klucel (hydroxypropylcellulose) (HPC)) of the same compound?
**A.** Its T/C is 557 % of control.

**Q.** And the T/C (dose: 1200.0 mg/kg/injection, schedule: Q04DX003 (sc), vehicle: Klucel (hydroxypropylcellulose) (HPC))?
**A.** The T/C was 388 % of control.

**Q.** What about the T/C [3] of the same compound?
**A.** The T/C was 420 % of control.

**Q.** What does the source list for Oc1ccc(SCc2ccc(NCc3ccccc3)cc2)cc1?
**A.** T/C (dose: 25.0 mg/kg/injection, schedule: Q01DX010 (sc), vehicle: saline with Tween-80): 104 % of control; T/C (dose: 50.0 mg/kg/injection, schedule: Q01DX010 (sc), vehicle: saline with Tween-80): 46 % of control; T/C (dose: 100.0 mg/kg/injection, schedule: Q01DX010 (sc), vehicle: saline with Tween-80): 92 % of control; T/C (dose: 200.0 mg/kg/injection, schedule: Q01DX010 (sc), vehicle: saline with Tween-80): 74 % of control; T/C (dose: 400.0 mg/kg/injection, schedule: Q01DX010 (sc), vehicle: saline with Tween-80): 55 % of control; T/C (dose: 800.0 mg/kg/injection, schedule: Q01DX010 (sc), vehicle: saline with Tween-80): 94 % of control

**Q.** For C=C(OP(=O)(OC)OC)Sc1ccccc1C, which T/C (dose: 0.2 mg/kg/injection, schedule: Q04DX003 (sc), vehicle: Klucel (hydroxypropylcellulose) (HPC)) is on record?
**A.** Its T/C is 65 % of control.

**Q.** And the T/C (dose: 0.4 mg/kg/injection, schedule: Q04DX003 (sc), vehicle: Klucel (hydroxypropylcellulose) (HPC))?
**A.** Its T/C is 67 % of control.

**Q.** What does the source list for CN1CCc2c(c3ccccc3c3ccccc23)C1?
**A.** T/C [4]: 30 % of control; T/C [2]: 45 % of control

**Q.** Which T/C (dose: 200.0 mg/kg/injection, schedule: Q04DX003 (sc), vehicle: Klucel (hydroxypropylcellulose) (HPC)) does the source give for CCCCCCCCCCCCCCC/C([O-])=N/[N+](C)(C)CC(C)O (centres undefined) here?
**A.** Its T/C is 95 % of control.

**Q.** What about the T/C [1] of the same compound?
**A.** The T/C was 100 % of control.

**Q.** What about the T/C (dose: 1600.0 mg/kg/injection, schedule: Q04DX003 (sc), vehicle: Klucel (hydroxypropylcellulose) (HPC)) of the same compound?
**A.** Its T/C is 91 % of control.

**Q.** And the T/C [3]?
**A.** Its T/C is 63 % of control.

**Q.** Which T/C [4] does the source give for CC(CN1CC(=O)NC(=O)C1)N1CC(=O)NC(=O)C1 (centres undefined) here?
**A.** Its T/C is 92 % of control.

**Q.** What about the T/C [2] of the same compound?
**A.** The T/C was 64 % of control.

**Q.** Which T/C (dose: 75.0 mg/kg/injection, schedule: Q04DX003 (ip), vehicle: saline + alcohol) does the source give for c1cc2c(c(CC3CO3)c1CC1CO1)OCCOCCOCCOCCO2 (centres undefined) here?
**A.** The T/C was 57 % of control.

**Q.** What about the T/C (dose: 150.0 mg/kg/injection, schedule: Q04DX003 (ip), vehicle: saline + alcohol) of the same compound?
**A.** Its T/C is 65 % of control.

**Q.** And the T/C (dose: 300.0 mg/kg/injection, schedule: Q04DX003 (ip), vehicle: saline + alcohol)?
**A.** Its T/C is 78 % of control.

**Q.** Which T/C (dose: 0.94 mg/kg/injection, schedule: Q04DX003 (sc), vehicle: saline with Tween-80) does the source give for Nc1nc(=S)c2ncn(C3CC(O)C(CO)O3)c2[nH]1 (centres undefined) here?
**A.** The T/C was 97 % of control.

**Q.** What about the T/C (dose: 1.88 mg/kg/injection, schedule: Q04DX003 (sc), vehicle: saline with Tween-80) of the same compound?
**A.** Its T/C is 81 % of control.

**Q.** And the T/C (dose: 3.75 mg/kg/injection, schedule: Q04DX003 (sc), vehicle: saline with Tween-80)?
**A.** Its T/C is 97 % of control.

**Q.** And the T/C (dose: 7.5 mg/kg/injection, schedule: Q04DX003 (sc), vehicle: saline with Tween-80)?
**A.** Its T/C is 87 % of control.

**Q.** What about the T/C (dose: 50.0 mg/kg/injection, schedule: Q01DX010 (sc), vehicle: Klucel (hydroxypropylcellulose) (HPC)) of the same compound?
**A.** The T/C was 64 % of control.

**Q.** What about the T/C (dose: 100.0 mg/kg/injection, schedule: Q01DX010 (sc), vehicle: Klucel (hydroxypropylcellulose) (HPC)) of the same compound?
**A.** The T/C was 122 % of control.

**Q.** With CCN(CC)CCNc1ccc(C)c2sc3ccc(O)cc3c(=O)c12 as the compound, how does the T/C (dose: 600.0 mg/kg/injection, schedule: Q04DX003 (sc), vehicle: saline with Tween-80) read?
**A.** Its T/C is 67 % of control.

**Q.** And the T/C (dose: 1200.0 mg/kg/injection, schedule: Q04DX003 (sc), vehicle: saline with Tween-80)?
**A.** The T/C was 57 % of control.
